Results published in patent publication US11744814B2, “Methods and pharmaceutical preparations for elevating blood hemoglobin and oxygen saturation levels with hydroxycitric acid” (GLYKON TECHNOLOGIES GROUP, LLC, priority 2020, dated 2023).

Tests used:
[1] = fNIRS measurement of blood hemoglobin and oxygen saturation after the Example 1 formulation; type: in vivo, human; conditions: conclusion over the examples, HCA administration
Procedure: Subjects 1-4 were orally administered the formulation of Example 1. The Subjects were given either one or two administrations of 8.33 ml of the aqueous formulation of Example 1 on an empty stomach, i.e. wherein with each 8.33 ml the subject received 2,500 mg of the potassium-magnesium (−)-hydroxycitric acid salt, corresponding to 1745 mg of (−)-hydroxycitric acid.
fNIRS testing (functional Near Infrared Spectroscopy) was used to measure blood hemoglobin and oxygen saturation. fNIRS can be used to determine real-time peripheral and cerebral hemodynamic responses. For example, relative changes in HbR (deoxygen saturation), HbO (oxygen saturation), and HbT (total hemoglobin concentration), etc. can be determined via application of Modified Beer Lambert Law. HbR, Hb=deoxygen saturation (shown as the thinnest and bottom dashed line in FIG. 1) HbO, HbO2=oxygen saturation (shown as the medium-thickness and middle line in FIG. 1) HbT=total hemoglobin concentration (shown as the darkest, thickest and top line in FIG. 1). On the graphs, time is in seconds.

ATP citrate lyase = target: T1, ATP citrate lyase (Homo sapiens, UniProt P53396); conditions: background statement; cited from earlier work
T1 sequence (P53396 1-1101): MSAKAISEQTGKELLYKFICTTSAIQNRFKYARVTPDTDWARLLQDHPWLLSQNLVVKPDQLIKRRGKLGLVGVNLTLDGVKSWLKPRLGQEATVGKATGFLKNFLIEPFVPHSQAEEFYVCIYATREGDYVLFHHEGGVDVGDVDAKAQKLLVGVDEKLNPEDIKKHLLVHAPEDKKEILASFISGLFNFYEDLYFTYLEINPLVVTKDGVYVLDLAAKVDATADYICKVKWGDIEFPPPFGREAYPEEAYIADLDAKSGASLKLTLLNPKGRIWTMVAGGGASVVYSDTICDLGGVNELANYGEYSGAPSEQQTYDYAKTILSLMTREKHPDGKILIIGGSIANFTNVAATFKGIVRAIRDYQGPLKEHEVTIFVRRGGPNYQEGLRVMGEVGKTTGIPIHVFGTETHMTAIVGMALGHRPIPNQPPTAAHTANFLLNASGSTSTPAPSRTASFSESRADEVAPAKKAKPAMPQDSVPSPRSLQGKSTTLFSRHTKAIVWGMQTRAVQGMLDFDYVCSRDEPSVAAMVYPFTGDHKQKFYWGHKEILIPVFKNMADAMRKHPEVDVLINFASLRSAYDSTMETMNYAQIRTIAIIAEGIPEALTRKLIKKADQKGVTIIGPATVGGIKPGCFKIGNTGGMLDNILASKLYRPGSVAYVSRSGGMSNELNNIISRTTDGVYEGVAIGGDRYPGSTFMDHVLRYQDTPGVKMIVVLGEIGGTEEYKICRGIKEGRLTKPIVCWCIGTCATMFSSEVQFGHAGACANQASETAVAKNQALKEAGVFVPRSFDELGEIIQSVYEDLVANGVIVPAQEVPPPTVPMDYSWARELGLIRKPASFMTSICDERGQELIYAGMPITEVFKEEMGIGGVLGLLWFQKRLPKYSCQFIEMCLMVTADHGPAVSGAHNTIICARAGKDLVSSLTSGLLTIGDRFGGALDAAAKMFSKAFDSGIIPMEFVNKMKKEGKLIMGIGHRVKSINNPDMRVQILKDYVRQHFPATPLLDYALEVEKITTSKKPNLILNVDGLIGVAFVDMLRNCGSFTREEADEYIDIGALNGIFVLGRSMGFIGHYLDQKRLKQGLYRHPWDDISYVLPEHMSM

[2] = Blood levels of biomolecules before and 90 minutes after the Example 1 formulation; type: in vivo, human; conditions: conclusion over the examples, HCA administration
Procedure: Subject 5 was a person, weighing approximately 285 pounds and with a normal fasting blood sugar level of 115-120. First, blood was drawn from Subject 5 and levels of various biomolecules were measured. Next, Subject 5 was administered 16.66 ml of the Example 1 formulation on an empty stomach, i.e. wherein with each 16.66 ml the subject received 5,000 mg of the potassium-magnesium (−)-hydroxycitric acid salt, corresponding to 3490 mg of (−)-hydroxycitric acid. 90 minutes after the administration, blood was drawn from Subject 5 and levels of the various biomolecules were remeasured.
Subject 6 was administered 16.66 ml of the Example 1 formulation on an empty stomach, i.e. wherein with each 16.66 ml the subject received 5,000 mg of the potassium-magnesium (−)-hydroxycitric acid salt, corresponding to 3490 mg of (−)-hydroxycitric acid. 90 minutes after the administration, blood was drawn from Subject 6 and levels of the various biomolecules were remeasured.

[3] = system: intestinal alpha-glucosidase; conditions: background statement, in vitro; cited from earlier work
pancreatic alpha-amylase = target: T2, pancreatic alpha-amylase (Homo sapiens, UniProt P04746); conditions: background statement, in vitro; cited from earlier work
T2 sequence (P04746 16-511): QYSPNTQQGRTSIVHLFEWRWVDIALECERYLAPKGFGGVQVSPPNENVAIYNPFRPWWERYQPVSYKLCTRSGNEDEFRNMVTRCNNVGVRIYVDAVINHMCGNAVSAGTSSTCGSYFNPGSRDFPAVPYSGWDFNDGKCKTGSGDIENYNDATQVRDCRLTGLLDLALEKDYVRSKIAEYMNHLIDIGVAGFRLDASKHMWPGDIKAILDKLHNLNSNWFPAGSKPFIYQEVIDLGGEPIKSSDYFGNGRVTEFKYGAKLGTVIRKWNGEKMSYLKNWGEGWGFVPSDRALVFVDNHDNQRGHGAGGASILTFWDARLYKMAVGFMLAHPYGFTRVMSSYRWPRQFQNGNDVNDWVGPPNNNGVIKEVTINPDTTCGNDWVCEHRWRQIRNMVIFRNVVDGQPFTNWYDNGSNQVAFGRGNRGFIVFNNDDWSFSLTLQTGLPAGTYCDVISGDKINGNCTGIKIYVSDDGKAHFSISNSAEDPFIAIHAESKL

## O=C(O)CC(O)(C(=O)O)C(O)C(=O)O (stereo not drawn) [HCA, 1,2-dihydroxypropane-1,2,3-tricarboxylic acid]
[1]
  blood hemoglobin: increased
  oxygen saturation: increased
ATP citrate lyase
  inhibition of ATP citrate lyase: competitive inhibitor
[2]
  cortisol: decreased
  levels of ketones: relatively stable or slightly lower
  triglycerides: decreased
[2]; in some cases transient
  glucose: increased

## O=C(O)C[C@](O)(C(=O)O)[C@H](O)C(=O)O [(2S,3R)-HCA]
[3]
  inhibition of intestinal alpha-glucosidase: inhibits
Pancreatic alpha-amylase
  inhibition of pancreatic alpha-amylase: inhibits
